This note sets out measurements from PubChem BioAssay AID200 (DTP/NCI, 2004).

Values joined by “and” are separate entries in the source; they are usually repeats but may differ in a detail not shown here. Equal values may be shown once. Inconclusive results and toxic doses are left out.

In the test the test system is B6C3F1 mice, B16 melanoma ip, median survival T/C. Briefly: NCI In Vivo Anticancer Drug Screen. Data for tumor model B16 Melanoma (intraperitoneal) in B6C3F1 mice. As to conditions: endpoint: median survival time, higher = longer survival. Summed up: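 Transplantable tumor in mice; treated vs vehicle control groups; survival or tumor size measured; value = T/C ratio.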

Setting [1] is: dose: 6.25 mg/kg/injection, schedule: Q01DX009 (ip), vehicle: saline.
Setting [2] is: dose: 12.5 mg/kg/injection, schedule: Q01DX009 (ip), vehicle: saline.
[3] abbreviates: dose: 6.25 mg/kg/injection, schedule: Q01DX009 (ip), vehicle: saline with Tween-80.
[4] abbreviates: dose: 12.5 mg/kg/injection, schedule: Q01DX009 (ip), vehicle: saline with Tween-80.
Setting [5] is: dose: 25.0 mg/kg/injection, schedule: Q01DX009 (ip), vehicle: saline with Tween-80.
Where [6] appears, read: dose: 50.0 mg/kg/injection, schedule: Q01DX009 (ip), vehicle: saline with Tween-80.
Where [7] appears, read: dose: 100.0 mg/kg/injection, schedule: Q01DX009 (ip), vehicle: saline with Tween-80.
Where [8] appears, read: dose: 25.0 mg/kg/injection, schedule: Q01DX009 (ip), vehicle: saline.
Where [9] appears, read: dose: 50.0 mg/kg/injection, schedule: Q01DX009 (ip), vehicle: saline.

For the molecule `O=c1cc(-c2ccccc2)nc(N[N+](=O)[O-])[nH]1`, the T/C (dose: 11.0 mg/kg/injection, schedule: Q01DX009 (ip), vehicle: Klucel (hydroxypropylcellulose) (HPC)) was 91 % of control; the T/C (dose: 22.0 mg/kg/injection, schedule: Q01DX009 (ip), vehicle: Klucel (hydroxypropylcellulose) (HPC)) is 100 % of control; the T/C (dose: 44.0 mg/kg/injection, schedule: Q01DX009 (ip), vehicle: Klucel (hydroxypropylcellulose) (HPC)) is 105 % of control; the T/C (dose: 88.0 mg/kg/injection, schedule: Q01DX009 (ip), vehicle: Klucel (hydroxypropylcellulose) (HPC)) is 88 % of control.

Consider `C/C=C1/C(=O)O[C@]23C=C[C@@H]4C(C(=O)OC)=CO[C@H](O[C@@H]12)[C@@H]43`, for which the T/C reads like this: (dose: 3.75 mg/kg/injection, schedule: Q01DX009 (ip), vehicle: Klucel (hydroxypropylcellulose) (HPC)) 102 % of control; (dose: 7.5 mg/kg/injection, schedule: Q01DX009 (ip), vehicle: Klucel (hydroxypropylcellulose) (HPC)) 91 % of control; (dose: 15.0 mg/kg/injection, schedule: Q01DX009 (ip), vehicle: Klucel (hydroxypropylcellulose) (HPC)) 98 % of control.

In the case of `N=C(N)CCCCCCCCC(=N)N`, the T/C (dose: 0.78 mg/kg/injection, schedule: Q01DX009 (ip), vehicle: saline) is 99 % of control and 102 % of control; the T/C (dose: 1.56 mg/kg/injection, schedule: Q01DX009 (ip), vehicle: saline) is 108 % of control and 112 % of control; the T/C (dose: 3.12 mg/kg/injection, schedule: Q01DX009 (ip), vehicle: saline) was 110 % of control; the T/C (dose: 3.13 mg/kg/injection, schedule: Q01DX009 (ip), vehicle: saline) is 102 % of control; the T/C under setting [1] was 118 % of control and 106 % of control; the T/C under setting [2] is 112 % of control.

As for `Nc1nc(Br)nc2c1ncn2C1CC(O)C(CO)O1` (stereo not given), the T/C (dose: 7.5 mg/kg/injection, schedule: Q03HX009 (ip), vehicle: saline) is 96 % of control; the T/C (dose: 15.0 mg/kg/injection, schedule: Q03HX009 (ip), vehicle: saline) was 96 % of control; the T/C (dose: 30.0 mg/kg/injection, schedule: Q03HX009 (ip), vehicle: saline) is 93 % of control; the T/C (dose: 60.0 mg/kg/injection, schedule: Q03HX009 (ip), vehicle: saline) is 101 % of control.

`[NH-]C(CCC(N)=O)C(=O)O.[NH-]C(CCC(N)=O)C(=O)O.[Zn+2]` (stereo not given): the T/C runs as follows: under setting [3], 95 % of control; under setting [4], 93 % of control; under setting [5], 98 % of control; under setting [6], 90 % of control.

Turning to `OC1CCCC2CCC[N-]C12.OC1CCCC2CCC[N-]C12.[Mn+2]` (stereo not given), the T/C is 109 % of control (dose: 25.0 mg/kg/injection, schedule: Q01DX009 (ip), vehicle: Klucel (hydroxypropylcellulose) (HPC)) and 102 % of control (dose: 50.0 mg/kg/injection, schedule: Q01DX009 (ip), vehicle: Klucel (hydroxypropylcellulose) (HPC)).

For `O=C(N/N=C/c1ccccc1O)c1cccc([N+](=O)[O-])c1`, the T/C was 103 % of control under setting [7]; 87 % of control (dose: 200.0 mg/kg/injection, schedule: Q01DX009 (ip), vehicle: saline with Tween-80); 96 % of control (dose: 400.0 mg/kg/injection, schedule: Q01DX009 (ip), vehicle: saline with Tween-80).

Consider `COCC(CN1CCN(c2ccccc2OC)CC1)OC` (stereo not given), for which the T/C under setting [2] is 100 % of control, the T/C under setting [8] is 99 % of control and the T/C under setting [9] is 105 % of control.

For `Nc1nc(N)c2cc(CNc3ccc(C(=O)NC(CC(=O)O)CC(=O)O)cc3)ccc2n1`, the T/C is 87 % of control (dose: 0.04 mg/kg/injection, schedule: Q01DX009 (ip), vehicle: Klucel (hydroxypropylcellulose) (HPC)); 89 % of control (dose: 0.09 mg/kg/injection, schedule: Q01DX009 (ip), vehicle: Klucel (hydroxypropylcellulose) (HPC)); 87 % of control (dose: 0.39 mg/kg/injection, schedule: Q01DX009 (ip), vehicle: Klucel (hydroxypropylcellulose) (HPC)); 110 % of control under setting [3]; 90 % of control under setting [4]; 95 % of control under setting [5]. For the same molecule, the T/C under setting [6] is 87 % of control.

Consider `O=C(Nc1ccccc1)c1c(O)[nH]c(=O)[nH]c1=O`, for which the T/C reads like this: under setting [4], 103 % of control; under setting [5], 110 % of control and 100 % of control; under setting [6], 114 % of control and 115 % of control.

As to `COc1cccc2c1C(=O)c1c(O)c3c(c(O)c1C2=O)C[C@@](O)(C(C)=O)C[C@@H]3OC1CC(N)C(O)C(C)O1` (stereo not given in full), the T/C was 151 % of control (dose: 0.12 mg/kg/injection, schedule: Q01DX009 (ip), vehicle: water); 171 % of control (dose: 0.25 mg/kg/injection, schedule: Q01DX009 (ip), vehicle: water); 174 % of control and 186 % of control (dose: 0.5 mg/kg/injection, schedule: Q01DX009 (ip), vehicle: water); 154 % of control and 285 % of control (dose: 1.0 mg/kg/injection, schedule: Q01DX009 (ip), vehicle: water); 187 % of control (dose: 1.5 mg/kg/injection, schedule: Q01DX001 (ip), vehicle: water); 242 % of control and 96 % of control (dose: 2.0 mg/kg/injection, schedule: Q01DX009 (ip), vehicle: water). Also, the T/C (dose: 3.0 mg/kg/injection, schedule: Q01DX001 (ip), vehicle: water) is 218 % of control and the T/C (dose: 6.0 mg/kg/injection, schedule: Q01DX001 (ip), vehicle: water) was 122 % of control.

As for `Cc1c(N)nc([C@H](CC(N)=O)NC[C@H](N)C(N)=O)nc1C(=O)N[C@H](C(=O)N[C@H](C)[C@@H](O)CC(=O)N[C@H](C(=O)NC(O[C@@H]1O[C@@H](C)[C@@H](N)[C@@H](O)[C@H]1O)C(O)c1nc(-c2nc(C(=O)NCCCCN)cs2)cs1)[C@@H](C)O)[C@@H](O[C@@H]1O[C@@H](CO)[C@@H](O)[C@H](O)[C@@H]1O[C@H]1O[C@H](CO)[C@@H](O)[C@H](OC(N)=O)[C@@H]1O)c1c[nH]cn1` (stereo not given in full), the T/C (dose: 0.25 mg/kg/injection, schedule: Q01DX009 (ip), vehicle: saline) was 104 % of control; the T/C (dose: 0.4 mg/kg/injection, schedule: Q01DX009 (ip), vehicle: saline) was 116 % of control and 94 % of control; the T/C (dose: 0.5 mg/kg/injection, schedule: Q01DX009 (ip), vehicle: saline) is 107 % of control; the T/C (dose: 0.8 mg/kg/injection, schedule: Q01DX009 (ip), vehicle: saline) is 94 % of control; the T/C (dose: 1.0 mg/kg/injection, schedule: Q01DX009 (ip), vehicle: saline) was 115 % of control; the T/C (dose: 1.6 mg/kg/injection, schedule: Q01DX009 (ip), vehicle: saline) was 98 % of control. The T/C reads like this: (dose: 2.0 mg/kg/injection, schedule: Q01DX009 (ip), vehicle: saline) 114 % of control; (dose: 3.2 mg/kg/injection, schedule: Q01DX009 (ip), vehicle: saline) 101 % of control; (dose: 4.0 mg/kg/injection, schedule: Q01DX009 (ip), vehicle: saline) 121 % of control; (dose: 6.4 mg/kg/injection, schedule: Q01DX009 (ip), vehicle: saline) 97 % of control.

As for `O=S(O)O`, the T/C is, setting by setting: under setting [9], 107 % of control; (dose: 100.0 mg/kg/injection, schedule: Q01DX009 (ip), vehicle: saline) 115 % of control; (dose: 200.0 mg/kg/injection, schedule: Q01DX009 (ip), vehicle: saline) 98 % of control; (dose: 400.0 mg/kg/injection, schedule: Q01DX009 (ip), vehicle: saline) 102 % of control.

With `CC(=O)N(C)c1ccc(Nc2cc(C)[nH]c3ccc4ncnc4c23)cc1`, the T/C runs as follows: under setting [1], 122 % of control; under setting [2], 171 % of control and 178 % of control; under setting [8], 177 % of control and 198 % of control; under setting [9], 177 % of control and 184 % of control.

Turning to `CC(=O)c1ccc(C)cc1C`, the T/C was 105 % of control under setting [5], 92 % of control under setting [6] and 98 % of control under setting [7].

For `CC(O)CNCCNc1ccc(NCCNCC(C)O)c2c1C(=O)c1c(O)ccc(O)c1C2=O` (stereo not given), the T/C is 169 % of control (dose: 1.0 mg/kg/injection, schedule: Q01DX009 (ip), vehicle: distilled water + Tween-80); 194 % of control (dose: 2.0 mg/kg/injection, schedule: Q01DX009 (ip), vehicle: distilled water + Tween-80); 221 % of control (dose: 4.0 mg/kg/injection, schedule: Q01DX009 (ip), vehicle: distilled water + Tween-80); 180 % of control (dose: 8.0 mg/kg/injection, schedule: Q01DX009 (ip), vehicle: distilled water + Tween-80).

For the molecule `CN=C(NC)c1ccc(NC(=O)/C=C\c2ccc(/C=C/C(=O)Nc3ccc(C(=NC)NC)cc3)cc2)cc1`, the T/C reads like this: (dose: 1.56 mg/kg/injection, schedule: Q01DX009 (ip), vehicle: Klucel (hydroxypropylcellulose) (HPC)) 110 % of control; (dose: 3.12 mg/kg/injection, schedule: Q01DX009 (ip), vehicle: Klucel (hydroxypropylcellulose) (HPC)) 107 % of control; (dose: 6.25 mg/kg/injection, schedule: Q01DX009 (ip), vehicle: Klucel (hydroxypropylcellulose) (HPC)) 90 % of control.
